PubChem BioAssay (NCI)
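48-hour exposure; five concentrations; linearly interpolated endpoints. GI50 marks 50% less growth. TGI is the concentration that stops growth completely.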

Columns and labels:
Experiment in all cases: growth of human tumour cells (NCI), 48 h
COLO 205 colon = system: COLO 205 colon
ACHN renal = system: ACHN renal
NCI-H226 lung = system: NCI-H226 lung
SR leukemia = system: SR leukemia
T-47D breast = system: T-47D breast
RXF 393 renal = system: RXF 393 renal
OVCAR-4 ovarian = system: OVCAR-4 ovarian
SF-268 CNS = system: SF-268 CNS
SW-620 colon = system: SW-620 colon
HCC-2998 colon = system: HCC-2998 colon
CCRF-CEM leukemia = system: CCRF-CEM leukemia
TK-10 renal = system: TK-10 renal
HL-60(TB) leukemia = system: HL-60(TB) leukemia
EKVX NSCLC = system: EKVX NSCLC
786-0 renal = system: 786-0 renal
M14 melanoma = system: M14 melanoma
A549 NSCLC = system: A549 NSCLC
MDA-MB-231 breast = system: MDA-MB-231 breast
MCF7 breast = system: MCF7 breast
HOP-92 NSCLC = system: HOP-92 NSCLC
HS 578T breast = system: HS 578T breast
HCT-15 colon = system: HCT-15 colon
HOP-62 NSCLC = system: HOP-62 NSCLC
SK-MEL-28 melanoma = system: SK-MEL-28 melanoma
A498 renal = system: A498 renal
OVCAR-5 ovarian = system: OVCAR-5 ovarian
U251 CNS = system: U251 CNS
BT-549 breast = system: BT-549 breast
MDA-MB-435 = system: MDA-MB-435
NCI-H23 lung = system: NCI-H23 lung
NCI-H522 lung = system: NCI-H522 lung
KM12 colon = system: KM12 colon
LOX IMVI melanoma = system: LOX IMVI melanoma
OVCAR-8 ovarian = system: OVCAR-8 ovarian
SF-295 CNS = system: SF-295 CNS
SNB-19 CNS = system: SNB-19 CNS
MOLT-4 leukemia = system: MOLT-4 leukemia
SK-MEL-5 melanoma = system: SK-MEL-5 melanoma
UACC-62 melanoma = system: UACC-62 melanoma
SK-OV-3 ovarian = system: SK-OV-3 ovarian
SF-539 CNS = system: SF-539 CNS
RPMI-8226 leukemia = system: RPMI-8226 leukemia
NCI-H460 lung = system: NCI-H460 lung
NCI/ADR-RES ovarian = system: NCI/ADR-RES ovarian
UACC-257 melanoma = system: UACC-257 melanoma
UO-31 renal = system: UO-31 renal
SK-MEL-2 melanoma = system: SK-MEL-2 melanoma
SNB-75 CNS = system: SNB-75 CNS
MALME-3M melanoma = system: MALME-3M melanoma
K-562 leukemia = system: K-562 leukemia
CAKI-1 renal = system: CAKI-1 renal
DU-145 prostate = system: DU-145 prostate
SN12C renal = system: SN12C renal
HCT-116 colon = system: HCT-116 colon
OVCAR-3 ovarian = system: OVCAR-3 ovarian
HT29 colon = system: HT29 colon
IGROV1 ovarian = system: IGROV1 ovarian
PC-3 prostate = system: PC-3 prostate

For `Cc1cc(NNC(=O)c2ccccc2O)nc(Nc2nc3ccccc3o2)n1`, the GI50 (COLO 205 colon) was 2.75 µM, the TGI (COLO 205 colon) was 15.4 µM and the GI50 (ACHN renal) was 1.02 µM. The TGI (ACHN renal) was 12.2 µM, the GI50 (NCI-H226 lung) was 1.66 µM and the TGI (NCI-H226 lung) was 8.47 µM. The GI50 (SR leukemia) was 0.602 µM, the TGI (SR leukemia) was 7.31 µM and the GI50 (T-47D breast) was 2.92 µM. The TGI (T-47D breast) was 21.5 µM, the GI50 (RXF 393 renal) was 1.69 µM and the TGI (RXF 393 renal) was 7.3 µM. It also gave a GI50 (OVCAR-4 ovarian) of 0.79 µM, a TGI (OVCAR-4 ovarian) of 7.06 µM and a GI50 (SF-268 CNS) of 1.13 µM. It also gave a TGI (SF-268 CNS) of 40.8 µM, a GI50 (SW-620 colon) of 3.03 µM and a TGI (SW-620 colon) of 17.8 µM. The GI50 (HCC-2998 colon) was 2.13 µM, the TGI (HCC-2998 colon) was 13.8 µM and the TGI (CCRF-CEM leukemia) was 11.8 µM. The GI50 (TK-10 renal) was 2.73 µM, the TGI (TK-10 renal) was 23.4 µM and the GI50 (HL-60(TB) leukemia) was 1.13 µM. It also gave a TGI (HL-60(TB) leukemia) of 6.99 µM, a GI50 (EKVX NSCLC) of 2.81 µM and a TGI (EKVX NSCLC) of 15.2 µM. The GI50 (786-0 renal) was 1.8 µM, the TGI (786-0 renal) was 7.98 µM and the GI50 (M14 melanoma) was 0.854 µM. The TGI (M14 melanoma) was 3.44 µM, the GI50 (A549 NSCLC) was 1.13 µM and the TGI (A549 NSCLC) was 10.3 µM. The GI50 (MDA-MB-231 breast) was 0.71 µM, the TGI (MDA-MB-231 breast) was 16.2 µM and the GI50 (MCF7 breast) was 1.88 µM. For the same compound, the TGI (MCF7 breast) was 20.7 µM, the GI50 (HOP-92 NSCLC) was 1.11 µM and the TGI (HOP-92 NSCLC) was 13.9 µM. The GI50 (HS 578T breast) was 3.26 µM, the TGI (HS 578T breast) was 37.5 µM and the GI50 (HCT-15 colon) was 1.17 µM. For the same compound, the TGI (HCT-15 colon) was over 39.5 µM, the GI50 (HOP-62 NSCLC) was 0.865 µM and the TGI (HOP-62 NSCLC) was 13.5 µM. The GI50 (SK-MEL-28 melanoma) was 1.64 µM, the TGI (SK-MEL-28 melanoma) was 13.3 µM and the GI50 (A498 renal) was 1.53 µM. The TGI (A498 renal) was 3.25 µM, the GI50 (OVCAR-5 ovarian) was 2.52 µM and the TGI (OVCAR-5 ovarian) was 15.9 µM. It also gave a GI50 (U251 CNS) of 0.628 µM, a TGI (U251 CNS) of 13.4 µM and a GI50 (BT-549 breast) of 4.52 µM. For the same compound, the TGI (BT-549 breast) was 28.2 µM, the GI50 (MDA-MB-435) was 3.02 µM and the TGI (MDA-MB-435) was 17.8 µM. The GI50 (NCI-H23 lung) was 3.99 µM, the TGI (NCI-H23 lung) was 37.8 µM and the GI50 (NCI-H522 lung) was 2.5 µM. For the same compound, the TGI (NCI-H522 lung) was 12.9 µM, the GI50 (KM12 colon) was 1.01 µM and the TGI (KM12 colon) was 35.2 µM. The GI50 (LOX IMVI melanoma) was 0.607 µM, the TGI (LOX IMVI melanoma) was 4.41 µM and the GI50 (OVCAR-8 ovarian) was 1.9 µM. It also gave a TGI (OVCAR-8 ovarian) of 12.8 µM, a GI50 (SF-295 CNS) of 0.846 µM and a TGI (SF-295 CNS) of 14.4 µM. For the same compound, the GI50 (SNB-19 CNS) was 1.86 µM, the TGI (SNB-19 CNS) was 21.3 µM and the GI50 (MOLT-4 leukemia) was 1.31 µM. It also gave a TGI (MOLT-4 leukemia) of 7.88 µM, a GI50 (SK-MEL-5 melanoma) of 1.11 µM and a TGI (SK-MEL-5 melanoma) of 6.72 µM. It also gave a GI50 (UACC-62 melanoma) of 0.966 µM, a TGI (UACC-62 melanoma) of 11.4 µM and a GI50 (SK-OV-3 ovarian) of 0.633 µM. For the same compound, the TGI (SK-OV-3 ovarian) was 2.22 µM, the GI50 (SF-539 CNS) was 1.41 µM and the TGI (SF-539 CNS) was 11.2 µM. It also gave a GI50 (RPMI-8226 leukemia) of 1.85 µM, a TGI (RPMI-8226 leukemia) of 13.9 µM and a GI50 (NCI-H460 lung) of 0.422 µM. The TGI (NCI-H460 lung) was 6.77 µM, the GI50 (NCI/ADR-RES ovarian) was 1.3 µM and the TGI (NCI/ADR-RES ovarian) was 7 µM. It also gave a GI50 (UACC-257 melanoma) of 3.25 µM, a TGI (UACC-257 melanoma) of 11.5 µM and a GI50 (UO-31 renal) of 0.622 µM. For the same compound, the TGI (UO-31 renal) was 1.91 µM, the GI50 (SK-MEL-2 melanoma) was 2.24 µM and the TGI (SK-MEL-2 melanoma) was 13.3 µM. It also gave a GI50 (SNB-75 CNS) of 3.49 µM, a TGI (SNB-75 CNS) of 17.4 µM and a GI50 (MALME-3M melanoma) of 2.98 µM. For the same compound, the TGI (MALME-3M melanoma) was 15.5 µM, the GI50 (K-562 leukemia) was 2.31 µM and the TGI (K-562 leukemia) was over 66.2 µM. For the same compound, the GI50 (CAKI-1 renal) was 1.73 µM, the TGI (CAKI-1 renal) was 14.3 µM and the GI50 (DU-145 prostate) was 1.83 µM. The TGI (DU-145 prostate) was 18.3 µM, the GI50 (SN12C renal) was 1.62 µM and the TGI (SN12C renal) was 19.1 µM. The GI50 (HCT-116 colon) was 1.06 µM, the TGI (HCT-116 colon) was 7.47 µM and the GI50 (OVCAR-3 ovarian) was 2.06 µM. For the same compound, the TGI (OVCAR-3 ovarian) was 15.6 µM, the GI50 (HT29 colon) was 3.31 µM and the TGI (HT29 colon) was 15.4 µM. It also gave a GI50 (IGROV1 ovarian) of 1.3 µM, a TGI (IGROV1 ovarian) of 12.2 µM and a GI50 (PC-3 prostate) of 0.912 µM. The TGI (PC-3 prostate) was 13.7 µM.
